Here are results for 3 compounds from patent publication US8129530B2, “Catecholamine derivatives and prodrugs thereof” (H. Lundbeck A/S, priority 2007, dated 2012).

Experiment [1] deals with mouse model of severe dopamine depletion. The experiment in a line: Superiority model. Type of experiment: in vivo. The following applies: mice. An excerpt:
Both Apomorphine and L-DOPA stimulate D1 and D2-like dopamine receptors.

Experiment [2] relates to PD patients. The note with it: intravenous (IV); cited from earlier work.

Molecules are shown by their SMILES.

In the case of `N[C@@H](Cc1ccc(O)c(O)c1)C(=O)O` [L-DOPA, (levo)-3,4-dihydroxy phenylalanine], the “reversal of motility deficits / restoration of locomotion” value in experiment [1] is “able to reverse motility deficits”.
On to `CN1CCc2cccc3c2[C@H]1Cc1ccc(O)c(O)c1-3` [Apomorphine], for which, in experiment [1], the “reversal of motility deficits / restoration of locomotion” value is reported as “able to reverse motility deficits”.
`CCCc1cc2c(s1)CN[C@@H]1CCc3cc(OC(C)=O)c(OC(C)=O)cc3[C@@H]21` [Adrogolide]: the antiparkinson efficacy result in experiment [2] is on record as “comparable to that of L-DOPA”.
